Experimental data reported in patent US20240390377A1, “COMPOSITION FOR THE PREVENTION OR TREATMENT OF NEURODEGENERATIVE OR MOTOR NEURON DISEASES COMPRISING HALOFUGINONE AS AN ACTIVE INGREDIENT” (CURAMYS CO., LTD., priority 2022, published 2024).

How the values were obtained:
[1] = tested on: G93A mutant SOD1 transgenic mice; assay: ALS animal model disease progression, survival and motor function (rotarod) analysis; type: in vivo, mouse
Protocol: Specifically, all animal experiments were conducted according to the guidelines of the Animal Care Committee of Seoul National University Animal Hospital (IACUC, approval number SNU-200220-1-2). Transgenic mice expressing the human G93A mutant SOD1 gene (B6SJL-Tg(SOD1-G93A) 1 Gur/J) as an ALS animal model were purchased from Jackson Laboratory (Bar Harbor, ME, USA). Male transgenic ALS mice expressing mtSOD1(G93A) H1 strain (Jackson Laboratories, Bar Harbor, ME, USA) were crossed with female mice (B6/SJLF1). The mice were housed under standard conditions with a constant temperature of 22±1° C., relative humidity of 40%, and a 12-hour light-dark cycle, with ad libitum access to food and water. Genotypes were confirmed by polymerase chain reaction (PCR) using primers shown in [Table 1] below, and the number of transgene copies was confirmed. Next, G93A mutant SOD1 transgenic mice were divided into three stages: 60 days old (asymptomatic), 90 days old (early symptom), and 120 days old (late symptom) depending on the time point. A total of 96 mice were used in the experiment. As a control group, non-transgenic mice were used.
(§1) As a control group, non-transgenic mice were injected intraperitoneally (i.p.) with vehicle (DMSO) in the same manner for the same period of time.
Specifically, the clinical condition and body weight of the mice in Example 6 were assessed three times a week starting from day 83 post-birth. Disease onset was defined as tremor of the limbs when the mouse's tail was suspended in the air, reported to be clinically associated with upper motor neuron system [S. Nagano, Y. Fujii, T. Yamamoto, M. Taniyama, K. Fukada, T. Yanagihara, et al. The efficacy of trientine or ascorbate alone compared to that of the combined treatment with these two agents in familial amyotrophic lateral sclerosis model mice Exp Neurol, 179 (2003), pp. 176-180]. The endpoint age was determined as the inability of the animal to right itself within 30 seconds after being placed on a flat surface on its side. At this point, the mouse was considered deceased [C. Zheng, I. Nennesmo, B. Fadeel, J. I. Henter Vascular endothelial growth factor prolongs survival in a transgenic mouse model of ALS Ann Neurol, 56 (2004), pp. 564-567]. The motor function of mice was assessed using a rotarod apparatus (JD-A-07M, JEUNG DO BIO & PLANT CO., LTD). Mice were trained for one week prior to recording. The mice were placed on a rotarod that started at a speed of 4 rpm and accelerated up to 40 rpm over 300 seconds, increasing by 1 rpm approximately every 8.3 seconds. The rotarod test was measured on average three times per measurement, three times per week from 83 days of age, until it was not possible to stay in rotarod for more than 10 seconds three consecutive times.
All data were expressed as the mean and the standard error of the mean (SEM) based on at least three independent experiments and as the ratio of control values. The significance of differences between groups was analyzed by Student's t-test or one-way ANOVA followed by Tukey's post host comparison. A p-value of <0.05 was considered statistically significant. The cumulative probability of symptom onset, rotarod failure, and disease endpoint was analyzed using a Kaplan Meier curve. All analyses were performed using GraphPad Prism. […]

[2] = tested on: G93A mutant SOD1 transgenic mice; assay: Motor neuron cell count (ChAT) in lumbar spinal cord of ALS animal model; type: in vivo, mouse
Protocol: as §1
Specifically, mice were sacrificed at various time points (90 days and 120 days) according to the clinical state of the mice of Example 6. Each mouse was transdermally perfused with cold 4% paraformaldehyde (PFA) following cold PBS, and lumbar spinal cord was separated. Samples were post-fixed in 4% paraformaldehyde, treated in a cold 30% sucrose solution, then freeze-protected, and then cross-sectional sections 14 μm thick were successively obtained. […] Motor neurons were quantified from ChAT-stained sections using a computer-assisted microscope (Olympus BX53) at 4× magnification, along with cellSens software. […] The fields analyzed were all ChAT+ profiles located in the ventral half of the immunostaining section clearly marked on the gray matter of each hemisphere.
In addition, to investigate the motor neuron source of the spinal cord, motor neurons of the lumbar spinal cord were observed and counted in the same manner as described in Example 9 (FIG. 9d), and real-time qRT-PCR and Western blot analysis were performed in the same manner as described in Example 11 and Example 12 to quantitatively analyze the expression of ChAT mRNA (FIG. 9e) and ChAT protein (FIG. 9f). […]

[3] = 250 μg/kg i.p. three times a week from 10 weeks of age, Hal TG vs DMSO TG group (FIG. 6a)

In the case of `O=C(C[C@H]1NCCC[C@@H]1O)Cn1cnc2cc(Br)c(Cl)cc2c1=O` (racemic) [halofuginone], the body weight [1, 3] is reported as “no significant difference”, the “time in the rotarod” value [1, 3] is reported as “significantly longer” and the onset of symptoms ([1]; 250 μg/kg i.p. three times a week, mean±SD, DMSO TG group 94.2±5.7) is reported as 113±3.6. The “age of reaching rotarod failure” value ([1]; 250 μg/kg i.p. three times a week, mean±SD, DMSO TG group 116.5±3.1, p<0.001) was 124.3±3.5, the endpoint age ([1]; 250 μg/kg i.p. three times a week, mean±SD, DMSO TG group 129.3±7.6) was 141.8±9.8 and the “number of ChAT-positive motor neurons in lumbar spinal cord, compared with changes at 120 days” value ([2]; 90-day-old mice (FIG. 10b)) was “similar”. For the same compound, the “number of ChAT-positive motor neurons in lumbar spinal cord” value ([2]; 120-day-old mice, compared to DMSO Non-TG group (FIG. 9d)) was “preserved similarly”.
